Laboratory results from PubChem BioAssay AID256 (DTP/NCI, 2004).
“And” between values parts separate entries of the source, which are not always exact repeats. Equal entries are not always repeated. Inconclusive results and toxic doses are left out. How the source made its calls: active means survival T/C of 150% or more; inactive means T/C below 125% in these data.

Test system: CD2F1 mice, L1210 leukemia ip, survival T/C
Assay: NCI In Vivo Anticancer Drug Screen. Data for tumor model L1210 Leukemia (intraperitoneal) in CD2F1 (CDF1) mice
Conditions: higher = longer survival
Outline: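 Mice carrying a transplanted tumor received test compound or vehicle alone. The value is the measurement in the treated group divided by that in the vehicle-treated control group.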

[1] = endpoint: mean survival time, dose: 25.0 mg/kg/injection, schedule: Q04DX002 (ip), vehicle: saline with Tween-80
[2] = endpoint: mean survival time, dose: 50.0 mg/kg/injection, schedule: Q04DX002 (ip), vehicle: saline with Tween-80
[3] = endpoint: mean survival time, dose: 100.0 mg/kg/injection, schedule: Q01DX001 (ip), vehicle: saline with Tween-80
[4] = endpoint: mean survival time, dose: 200.0 mg/kg/injection, schedule: Q01DX001 (ip), vehicle: saline with Tween-80
[5] = endpoint: mean survival time, dose: 400.0 mg/kg/injection, schedule: Q01DX001 (ip), vehicle: saline with Tween-80
[6] = endpoint: mean survival time, dose: 100.0 mg/kg/injection, schedule: Q01DX009 (ip), vehicle: saline with Tween-80
[7] = endpoint: mean survival time, dose: 200.0 mg/kg/injection, schedule: Q01DX009 (ip), vehicle: saline with Tween-80
[8] = endpoint: mean survival time, dose: 400.0 mg/kg/injection, schedule: Q01DX009 (ip), vehicle: saline with Tween-80
[9] = endpoint: mean survival time, dose: 50.0 mg/kg/injection, schedule: Q01DX009 (ip), vehicle: saline with Tween-80
[10] = endpoint: mean survival time, dose: 100.0 mg/kg/injection, schedule: Q04DX003 (ip), vehicle: saline with Tween-80
[11] = endpoint: mean survival time, dose: 200.0 mg/kg/injection, schedule: Q04DX003 (ip), vehicle: saline with Tween-80
[12] = endpoint: mean survival time, dose: 400.0 mg/kg/injection, schedule: Q04DX003 (ip), vehicle: saline with Tween-80

Measured: T/C

CN1C(=O)C2CCC1C(O)C2 (centres undefined)
inactive: [1] 98 % of control | [2] 106 % of control | endpoint: mean survival time, dose: 100.0 mg/kg/injection, schedule: Q04DX002 (ip), vehicle: saline with Tween-80 98 % of control | endpoint: mean survival time, dose: 200.0 mg/kg/injection, schedule: Q04DX002 (ip), vehicle: saline with Tween-80 95 % of control

CCSC(SCC)[C@H](NC(C)=O)[C@@H](O)[C@H](O)[C@H](O)CO
inactive: endpoint: mean survival time, dose: 100.0 mg/kg/injection, schedule: Q04DX003 (ip), vehicle: saline 101 % of control | endpoint: mean survival time, dose: 200.0 mg/kg/injection, schedule: Q04DX003 (ip), vehicle: saline 98 % of control | endpoint: mean survival time, dose: 400.0 mg/kg/injection, schedule: Q04DX003 (ip), vehicle: saline 95 % of control

COc1ccc(NC(=O)Oc2ccccc2F)c(Cl)c1
inactive: endpoint: mean survival time, dose: 50.0 mg/kg/injection, schedule: Q01DX009 (ip), vehicle: Klucel (hydroxypropylcellulose) (HPC) 96 % of control | endpoint: mean survival time, dose: 100.0 mg/kg/injection, schedule: Q01DX009 (ip), vehicle: Klucel (hydroxypropylcellulose) (HPC) 107 % of control | endpoint: mean survival time, dose: 200.0 mg/kg/injection, schedule: Q01DX009 (ip), vehicle: Klucel (hydroxypropylcellulose) (HPC) 104 % of control

CCCCCCC(C)(O)CCCCCC
inactive: [3] 93 % of control | [4] 96 % of control | [5] 101 % of control

O=Cc1cc(Br)c(O)c(Br)c1
inactive: endpoint: mean survival time, dose: 50.0 mg/kg/injection, schedule: Q01DX001 (ip), vehicle: Klucel (hydroxypropylcellulose) (HPC) 97 % of control | endpoint: mean survival time, dose: 100.0 mg/kg/injection, schedule: Q01DX001 (ip), vehicle: Klucel (hydroxypropylcellulose) (HPC) 93 % of control | endpoint: mean survival time, dose: 200.0 mg/kg/injection, schedule: Q01DX001 (ip), vehicle: Klucel (hydroxypropylcellulose) (HPC) 97 % of control

CCCCCCCC(=O)Nc1ccccc1CC
inactive: [6] 94 % of control | [7] 100 % of control | [8] 102 % of control

C/C(=N/Nc1ccc([N+](=O)[O-])cc1[N+](=O)[O-])C(C)C
inactive: endpoint: mean survival time, dose: 75.0 mg/kg/injection, schedule: Q04DX002 (ip), vehicle: saline with Tween-80 95 % of control | endpoint: mean survival time, dose: 150.0 mg/kg/injection, schedule: Q04DX002 (ip), vehicle: saline with Tween-80 98 % of control | endpoint: mean survival time, dose: 300.0 mg/kg/injection, schedule: Q04DX002 (ip), vehicle: saline with Tween-80 98 % of control

CCNC(=O)OCCc1c2ccccc2nc2ccccc12
inactive: endpoint: mean survival time, dose: 100.0 mg/kg/injection, schedule: Q04DX002 (ip), vehicle: other 105 % of control and 102 % of control | endpoint: mean survival time, dose: 200.0 mg/kg/injection, schedule: Q04DX002 (ip), vehicle: other 97 % of control and 90 % of control | endpoint: mean survival time, dose: 400.0 mg/kg/injection, schedule: Q04DX002 (ip), vehicle: other 94 % of control and 97 % of control

CCCC(=O)Nc1ccc(S(=O)(=O)Nc2ccc(S(=O)(=O)N3CCOCC3)cc2)cc1
inactive: [3] 103 % of control | [4] 92 % of control | [5] 94 % of control

O=c1[nH]c(=O)n(C2CC(O)C(CO)O2)cc1/C=N/O (centres undefined)
inactive: endpoint: mean survival time, dose: 12.5 mg/kg/injection, schedule: Q01DX005 (ip), vehicle: distilled water + Tween-80 101 % of control | endpoint: mean survival time, dose: 25.0 mg/kg/injection, schedule: Q01DX005 (ip), vehicle: distilled water + Tween-80 103 % of control | endpoint: mean survival time, dose: 50.0 mg/kg/injection, schedule: Q01DX005 (ip), vehicle: distilled water + Tween-80 101 % of control | endpoint: mean survival time, dose: 100.0 mg/kg/injection, schedule: Q01DX005 (ip), vehicle: distilled water + Tween-80 98 % of control | endpoint: mean survival time, dose: 200.0 mg/kg/injection, schedule: Q01DX005 (ip), vehicle: distilled water + Tween-80 101 % of control

CC(Cc1ccccc1)NC(C#N)c1ccccc1 (centres undefined)
inactive: endpoint: mean survival time, dose: 12.5 mg/kg/injection, schedule: Q01DX009 (ip), vehicle: saline with Tween-80 102 % of control | endpoint: mean survival time, dose: 25.0 mg/kg/injection, schedule: Q01DX009 (ip), vehicle: saline with Tween-80 98 % of control | [9] 101 % of control

CC(C)(C)c1cccc(C(C)(C)C)c1OC(=O)NS(=O)(=O)c1ccccc1
inactive: endpoint: mean survival time, dose: 12.5 mg/kg/injection, schedule: Q04DX003 (ip), vehicle: acetone 101 % of control | endpoint: mean survival time, dose: 25.0 mg/kg/injection, schedule: Q04DX003 (ip), vehicle: acetone 101 % of control | endpoint: mean survival time, dose: 50.0 mg/kg/injection, schedule: Q04DX003 (ip), vehicle: acetone 113 % of control

O=[N+]([O-])c1ccc(C[N+]23CCN(CC2)CC3)cc1
inactive: [3] 100 % of control | [4] 106 % of control

CCC1CCCCC1(O)CC (centres undefined)
inactive: [10] 106 % of control | [11] 103 % of control | [12] 103 % of control

CC(=O)n1c2ccccc2c2ccccc21
inactive: [9] 106 % of control | [6] 109 % of control | [7] 106 % of control

CC1CCCCC1NC(=O)c1ccccc1 (centres undefined)
inactive: [3] 100 % of control | [4] 98 % of control | [5] 87 % of control

C=CCSc1cccc2ccccc12
inactive: [6] 90 % of control | [10] 104 % of control | [7] 96 % of control | [11] 104 % of control | [12] 106 % of control

C=C(OP(=O)(OC)OC)Sc1ccccc1C
inactive: endpoint: median survival time, dose: 0.38 mg/kg/injection, schedule: Q01DX009 (ip), vehicle: Klucel (hydroxypropylcellulose) (HPC) 101 % of control | endpoint: median survival time, dose: 0.75 mg/kg/injection, schedule: Q01DX009 (ip), vehicle: Klucel (hydroxypropylcellulose) (HPC) 101 % of control

Nc1cccc(CCCCc2ccc(Cl)c(S(=O)(=O)F)c2)c1
inactive: [6] 94 % of control | [10] 106 % of control | [7] 97 % of control | [11] 106 % of control | [12] 108 % of control

CCCN(CCC)N=Nc1ccccc1
inactive: endpoint: mean survival time, dose: 75.0 mg/kg/injection, schedule: Q01DX001 (ip), vehicle: saline 104 % of control | endpoint: mean survival time, dose: 150.0 mg/kg/injection, schedule: Q01DX001 (ip), vehicle: saline 101 % of control

CC1(C)c2c3ccccc3cc3cccc(c23)[S+]1c1ccccc1 (centres undefined)
inactive: endpoint: mean survival time, dose: 5.0 mg/kg/injection, schedule: Q01DX001 (ip), vehicle: saline with Tween-80 105 % of control | endpoint: mean survival time, dose: 10.0 mg/kg/injection, schedule: Q01DX001 (ip), vehicle: saline with Tween-80 106 % of control | endpoint: mean survival time, dose: 20.0 mg/kg/injection, schedule: Q01DX001 (ip), vehicle: saline with Tween-80 111 % of control

CCSC#N
inactive: endpoint: mean survival time, dose: 2.5 mg/kg/injection, schedule: Q01DX009 (ip), vehicle: Klucel (hydroxypropylcellulose) (HPC) 98 % of control | endpoint: mean survival time, dose: 5.0 mg/kg/injection, schedule: Q01DX009 (ip), vehicle: Klucel (hydroxypropylcellulose) (HPC) 102 % of control | endpoint: mean survival time, dose: 10.0 mg/kg/injection, schedule: Q01DX009 (ip), vehicle: Klucel (hydroxypropylcellulose) (HPC) 102 % of control

NNc1ccnc2[nH]ncc12
inactive: endpoint: mean survival time, dose: 6.25 mg/kg/injection, schedule: Q01DX005 (ip), vehicle: saline with Tween-80 106 % of control | endpoint: mean survival time, dose: 12.5 mg/kg/injection, schedule: Q01DX005 (ip), vehicle: saline with Tween-80 103 % of control | endpoint: mean survival time, dose: 25.0 mg/kg/injection, schedule: Q01DX005 (ip), vehicle: saline with Tween-80 101 % of control

S=C=Nc1ccc(Cl)c2ccccc12
inactive: endpoint: mean survival time, dose: 12.5 mg/kg/injection, schedule: Q04DX002 (ip), vehicle: saline with Tween-80 90 % of control | [1] 98 % of control | [2] 102 % of control

C#CCOCCC(C(=O)OCC)C(=O)OCC
inactive: endpoint: mean survival time, dose: 100.0 mg/kg/injection, schedule: Q04DX003 (ip), vehicle: acetone 108 % of control | endpoint: mean survival time, dose: 200.0 mg/kg/injection, schedule: Q04DX003 (ip), vehicle: acetone 103 % of control | endpoint: mean survival time, dose: 400.0 mg/kg/injection, schedule: Q04DX003 (ip), vehicle: acetone 110 % of control

CCOC(=O)c1ccc(NC(=O)NC)cc1
inactive: [6] 93 % of control | [10] 92 % of control | [7] 93 % of control | [11] 93 % of control | [8] 93 % of control | [12] 101 % of control

Cc1ccc(S(=O)(=O)N/N=C/c2ccc(O)c(O)c2)cc1
inactive: endpoint: mean survival time, dose: 12.5 mg/kg/injection, schedule: Q04DX003 (ip), vehicle: other 101 % of control | endpoint: mean survival time, dose: 25.0 mg/kg/injection, schedule: Q04DX003 (ip), vehicle: other 98 % of control | endpoint: mean survival time, dose: 50.0 mg/kg/injection, schedule: Q04DX003 (ip), vehicle: other 101 % of control | endpoint: mean survival time, dose: 100.0 mg/kg/injection, schedule: Q04DX003 (ip), vehicle: other 101 % of control | endpoint: mean survival time, dose: 200.0 mg/kg/injection, schedule: Q04DX003 (ip), vehicle: other 95 % of control | endpoint: mean survival time, dose: 400.0 mg/kg/injection, schedule: Q04DX003 (ip), vehicle: other 101 % of control

FC(F)(F)Cc1ccccc1
inactive: [3] 103 % of control | [4] 108 % of control | [5] 105 % of control
